In ChEMBL document CHEMBL6153128, “Insights into the Activation Mechanism of HCA1, HCA2, and HCA3” (J Med Chem, 2025):
pEC50: −log10 of the molar value. Active and inactive are the calls of the source. No cut-off for these calls is given here.

Legend:
[1] = molecular target: T1, Hydroxycarboxylic acid receptor 1 (Homo sapiens, UniProt Q9BXC0); test: Agonist activity at CRE-luc-fused HCA1 (unknown origin) expressed in HEK293 cells co-expressing XtremeGENE HP DNA assessed as inhibition of cAMP production preincubated for 30 mins followed by forskolin addition measured after 6 hrs by Bright-Glo Luciferase Assay; type: functional, cell-based; details: filed as agonist, time 6.5 hrs
T1 sequence (Q9BXC0 whole entry, the tested form may be a part): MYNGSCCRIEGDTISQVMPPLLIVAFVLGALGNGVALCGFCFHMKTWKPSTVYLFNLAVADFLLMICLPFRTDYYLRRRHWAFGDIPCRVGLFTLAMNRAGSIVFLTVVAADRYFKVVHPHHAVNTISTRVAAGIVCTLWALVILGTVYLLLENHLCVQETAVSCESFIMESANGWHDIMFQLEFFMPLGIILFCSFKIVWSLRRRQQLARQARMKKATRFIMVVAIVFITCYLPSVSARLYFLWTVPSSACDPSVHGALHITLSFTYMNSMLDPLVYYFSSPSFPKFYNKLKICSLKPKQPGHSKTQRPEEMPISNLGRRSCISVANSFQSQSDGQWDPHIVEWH

[2] = tested on: Hydroxycarboxylic acid receptor 1 (Homo sapiens), Q9BXC0 [C6A]; test: Agonist activity at CRE-luc-fused HCA1 C6A mutant (unknown origin) expressed in HEK293 cells co-expressing XtremeGENE HP DNA assessed as inhibition of cAMP production preincubated for 30 mins followed by forskolin addition measured after 6 hrs by Bright-Glo Luciferase Assay; type: cell-based; details: time 6.5 hrs
Sequence of Hydroxycarboxylic acid receptor 1 (Homo sapiens), Q9BXC0 [C6A] (Q9BXC0 whole entry C6A, the tested form may be a part): as the sequence (Q9BXC0 whole entry, the tested form may be a part) above, with C6A counted along it

[3] = tested on: Hydroxycarboxylic acid receptor 1 (Homo sapiens), Q9BXC0 [C7A]; test: Agonist activity at CRE-luc-fused HCA1 C7A mutant (unknown origin) expressed in HEK293 cells co-expressing XtremeGENE HP DNA assessed as inhibition of cAMP production preincubated for 30 mins followed by forskolin addition measured after 6 hrs by Bright-Glo Luciferase Assay; type: cell-based; details: time 6.5 hrs
Sequence of Hydroxycarboxylic acid receptor 1 (Homo sapiens), Q9BXC0 [C7A] (Q9BXC0 whole entry C7A, the tested form may be a part): as the sequence (Q9BXC0 whole entry, the tested form may be a part) above, with C7A counted along it

[4] = tested on: Hydroxycarboxylic acid receptor 1 (Homo sapiens), Q9BXC0 [C88A]; test: Agonist activity at CRE-luc-fused HCA1 C88A mutant (unknown origin) expressed in HEK293 cells co-expressing XtremeGENE HP DNA assessed as inhibition of cAMP production preincubated for 30 mins followed by forskolin addition measured after 6 hrs by Bright-Glo Luciferase Assay; type: cell-based; details: time 6.5 hrs
Sequence of Hydroxycarboxylic acid receptor 1 (Homo sapiens), Q9BXC0 [C88A] (Q9BXC0 whole entry C88A, the tested form may be a part): as the sequence (Q9BXC0 whole entry, the tested form may be a part) above, with C88A counted along it

[5] = tested on: Hydroxycarboxylic acid receptor 1 (Homo sapiens), Q9BXC0 [Y74A]; test: Agonist activity at CRE-luc-fused HCA1 Y74A mutant (unknown origin) expressed in HEK293 cells co-expressing XtremeGENE HP DNA assessed as inhibition of cAMP production preincubated for 30 mins followed by forskolin addition measured after 6 hrs by Bright-Glo Luciferase Assay; type: cell-based; details: time 6.5 hrs
Sequence of Hydroxycarboxylic acid receptor 1 (Homo sapiens), Q9BXC0 [Y74A] (Q9BXC0 whole entry Y74A, the tested form may be a part): as the sequence (Q9BXC0 whole entry, the tested form may be a part) above, with Y74A counted along it

[6] = tested on: Hydroxycarboxylic acid receptor 1 (Homo sapiens), Q9BXC0 [E166A]; test: Agonist activity at CRE-luc-fused HCA1 E166A mutant (unknown origin) expressed in HEK293 cells co-expressing XtremeGENE HP DNA assessed as inhibition of cAMP production preincubated for 30 mins followed by forskolin addition measured after 6 hrs by Bright-Glo Luciferase Assay; type: cell-based; details: time 6.5 hrs
Sequence of Hydroxycarboxylic acid receptor 1 (Homo sapiens), Q9BXC0 [E166A] (Q9BXC0 whole entry E166A, the tested form may be a part): as the sequence (Q9BXC0 whole entry, the tested form may be a part) above, with E166A counted along it

[7] = tested on: Hydroxycarboxylic acid receptor 1 (Homo sapiens), Q9BXC0 [E166I]; test: Agonist activity at CRE-luc-fused HCA1 E166I mutant (unknown origin) expressed in HEK293 cells co-expressing XtremeGENE HP DNA assessed as inhibition of cAMP production preincubated for 30 mins followed by forskolin addition measured after 6 hrs by Bright-Glo Luciferase Assay; type: cell-based; details: time 6.5 hrs
Sequence of Hydroxycarboxylic acid receptor 1 (Homo sapiens), Q9BXC0 [E166I] (Q9BXC0 whole entry E166I, the tested form may be a part): as the sequence (Q9BXC0 whole entry, the tested form may be a part) above, with E166I counted along it

[8] = tested on: Hydroxycarboxylic acid receptor 1 (Homo sapiens), Q9BXC0 [R240A]; test: Agonist activity at CRE-luc-fused HCA1 R240A mutant (unknown origin) expressed in HEK293 cells co-expressing XtremeGENE HP DNA assessed as inhibition of cAMP production preincubated for 30 mins followed by forskolin addition measured after 6 hrs by Bright-Glo Luciferase Assay; type: cell-based; details: time 6.5 hrs
Sequence of Hydroxycarboxylic acid receptor 1 (Homo sapiens), Q9BXC0 [R240A] (Q9BXC0 whole entry R240A, the tested form may be a part): as the sequence (Q9BXC0 whole entry, the tested form may be a part) above, with R240A counted along it

[9] = molecular target: T1, Hydroxycarboxylic acid receptor 1; test: Agonist activity at HCA1 (unknown origin); type: functional, cell-based, HEK293
[10] = tested on: Hydroxycarboxylic acid receptor 1 (Homo sapiens), Q9BXC0 [R71A]; test: Agonist activity at CRE-luc-fused HCA1 R71A mutant (unknown origin) expressed in HEK293 cells co-expressing XtremeGENE HP DNA assessed as inhibition of cAMP production preincubated for 30 mins followed by forskolin addition measured after 6 hrs by Bright-Glo Luciferase Assay; type: cell-based; details: time 6.5 hrs
Sequence of Hydroxycarboxylic acid receptor 1 (Homo sapiens), Q9BXC0 [R71A] (Q9BXC0 whole entry R71A, the tested form may be a part): as the sequence (Q9BXC0 whole entry, the tested form may be a part) above, with R71A counted along it

[11] = tested on: Hydroxycarboxylic acid receptor 1 (Homo sapiens), Q9BXC0 [Y75A]; test: Agonist activity at CRE-luc-fused HCA1 Y75A mutant (unknown origin) expressed in HEK293 cells co-expressing XtremeGENE HP DNA assessed as inhibition of cAMP production preincubated for 30 mins followed by forskolin addition measured after 6 hrs by Bright-Glo Luciferase Assay; type: cell-based; details: time 6.5 hrs
Sequence of Hydroxycarboxylic acid receptor 1 (Homo sapiens), Q9BXC0 [Y75A] (Q9BXC0 whole entry Y75A, the tested form may be a part): as the sequence (Q9BXC0 whole entry, the tested form may be a part) above, with Y75A counted along it

[12] = tested on: Hydroxycarboxylic acid receptor 1 (Homo sapiens), Q9BXC0 [R99A]; test: Agonist activity at CRE-luc-fused HCA1 R99A mutant (unknown origin) expressed in HEK293 cells co-expressing XtremeGENE HP DNA assessed as inhibition of cAMP production preincubated for 30 mins followed by forskolin addition measured after 6 hrs by Bright-Glo Luciferase Assay; type: cell-based; details: time 6.5 hrs
Sequence of Hydroxycarboxylic acid receptor 1 (Homo sapiens), Q9BXC0 [R99A] (Q9BXC0 whole entry R79A, the tested form may be a part): as the sequence (Q9BXC0 whole entry, the tested form may be a part) above, with R79A counted along it

[13] = tested on: Hydroxycarboxylic acid receptor 1 (Homo sapiens), Q9BXC0 [H261A]; test: Agonist activity at CRE-luc-fused HCA1 H261A mutant (unknown origin) expressed in HEK293 cells co-expressing XtremeGENE HP DNA assessed as inhibition of cAMP production preincubated for 30 mins followed by forskolin addition measured after 6 hrs by Bright-Glo Luciferase Assay; type: cell-based; details: time 6.5 hrs
Sequence of Hydroxycarboxylic acid receptor 1 (Homo sapiens), Q9BXC0 [H261A] (Q9BXC0 whole entry H261A, the tested form may be a part): as the sequence (Q9BXC0 whole entry, the tested form may be a part) above, with H261A counted along it

[14] = tested on: Hydroxycarboxylic acid receptor 1 (Homo sapiens), Q9BXC0 [H261F]; test: Agonist activity at CRE-luc-fused HCA1 H261F mutant (unknown origin) expressed in HEK293 cells co-expressing XtremeGENE HP DNA assessed as inhibition of cAMP production preincubated for 30 mins followed by forskolin addition measured after 6 hrs by Bright-Glo Luciferase Assay; type: cell-based; details: time 6.5 hrs
Sequence of Hydroxycarboxylic acid receptor 1 (Homo sapiens), Q9BXC0 [H261F] (Q9BXC0 whole entry H261F, the tested form may be a part): as the sequence (Q9BXC0 whole entry, the tested form may be a part) above, with H261F counted along it

[15] = tested on: Hydroxycarboxylic acid receptor 1 (Homo sapiens), Q9BXC0 [Y268A]; test: Agonist activity at CRE-luc-fused HCA1 Y268A mutant (unknown origin) expressed in HEK293 cells co-expressing XtremeGENE HP DNA assessed as inhibition of cAMP production preincubated for 30 mins followed by forskolin addition measured after 6 hrs by Bright-Glo Luciferase Assay; type: cell-based; details: time 6.5 hrs
Sequence of Hydroxycarboxylic acid receptor 1 (Homo sapiens), Q9BXC0 [Y268A] (Q9BXC0 whole entry Y268A, the tested form may be a part): as the sequence (Q9BXC0 whole entry, the tested form may be a part) above, with Y268A counted along it

HEK293 [16] = test: Agonist activity at HCA2 (1 to 129 residues)/HCA3 (130-)(unknown origin) expressed in HEK293 cells incubated for 90 mins by IP1 accumulation assay; type: cell-based; details: Homo sapiens
HEK293 [17] = test: Agonist activity at HCA3 (1 to 129 residues)/HCA2 (130-)(unknown origin) expressed in HEK293 cells incubated for 90 mins by IP1 accumulation assay; type: cell-based; details: Homo sapiens
HEK293 [18] = test: Agonist activity at HCA3 (1 to 129 residues)/HCA2 (130-) Y86N/S91W mutant (unknown origin) expressed in HEK293 cells incubated for 90 mins by IP1 accumulation assay; type: cell-based; details: Homo sapiens, filed as agonist
HEK293 [19] = test: Agonist activity at HCA3 (1 to 129 residues)/HCA2 (130-) S178I mutant (unknown origin) expressed in HEK293 cells incubated for 90 mins by IP1 accumulation assay; type: cell-based; details: Homo sapiens, filed as agonist
HEK293 [20] = test: Agonist activity at HCA2 (1 to 129 residues)/HCA3 (130-) N86Y/W91S mutant (unknown origin) expressed in HEK293 cells incubated for 90 mins by IP1 accumulation assay; type: cell-based; details: Homo sapiens

## O=C(O)c1cc(O)cc(O)c1 [3,5-DIHYDROXYBENZOIC ACID]
[1]
  Activity: Active
[2]
  Activity: inactive
[3]
  Activity: inactive
[4]
  Activity: inactive
[5]
  Activity: inactive
[6]
  Activity: inactive
[7]
  Activity: inactive
[8]
  Activity: inactive
[9]
  pEC50: ~3.82
[10]
  Activity: inactive
[11]
  Activity: inactive
[12]
  Activity: inactive
[13]
  Activity: inactive
[14]
  Activity: inactive
[15]
  Activity: inactive

## O=C(O)c1cccc(O)c1 [3-HYDROXYBENZOIC ACID]
[9]
  pEC50: ~3.74

## CC1CCC(C(=O)Nc2nc(-c3cccs3)c(CC(=O)N3CCN(C)CC3)s2)CC1 (stereo not given)
[9]
  pEC50: ~7.30

## CC(C)(Cc1nc(-c2ccc(O)cn2)no1)C(=O)NC1=C(C(=O)O)CCCC1
HEK293 [16]
  Activity: inactive
HEK293 [17]
  Activity: inactive
HEK293 [18]
  Activity: Active

## CCCCCC(O)CC(=O)O (stereo not given)
HEK293 [16]
  Activity: inactive
HEK293 [19]
  Activity: Active
HEK293 [20]
  Activity: inactive

## CC(O)C(=O)O (stereo not given) [LACTIC ACID]
[9]
  pEC50: 3.00

## O=C(O)c1cc(O)cc(Cl)c1
[9]
  pEC50: ~4.80
